# Where “and” joins values, the source holds several entries; their conditions need not be identical. Equal entries are not always repeated. Entries after “also recorded” stand apart in the source; their conditions may differ.
# Experiments:
# HiBiT-5-HT1A = molecular target: T1, HiBiT-5-HT1A (Homo sapiens, UniProt P08908); experiment: cell-based; type: binding
# T1 construct: expressed in transfected cells; host or cells: HEK293 (transient)
# [1] = tested on: wildtype mouse prefrontal cortex layer V pyramidal neurons; experiment: Brain slice current clamp recording of membrane properties and action potential firing; type: cell-based
# Procedure: Animals: Wildtype C57BL/6J mice were obtained from the Jackson Labs. Male and female pups, age postnatal day (P) 17-23, were used for the electrophysiological experiments. Animals were housed in the Unit for Laboratory Animal Medicine at the University of Michigan. All procedures were performed in accordance with the NIH and approved by the University of Michigan IACUC.
# Brain Slice Preparation: Acute brain slices were prepared as described previously (Hull et al., Ann Clin Transl Neur., 2020; 7 (11): 2137-2149). Briefly, mice were anesthetized with isoflurane anesthesia and decapitated. Brains were carefully removed from the skull and placed in ice-cold carbogen-aerated slice solution containing (in mM): 110 sucrose, 62.5 NaCl, 2.5 KCl, 6 MgCl2, 1.25 KH2PO4, 26 NaHCO3, 0.5 CaCl2), 20 D-glucose, pH 7.35-7.40. Brains were blocked and slices were cut using a vibrating microtome (Electron Microscopy Sciences) in 250 μm thick coronal sections from prefrontal cortex. Slices were incubated in an aerated holding chamber containing slice solution for 30 minutes at room temperature and then incubated in 1:1 slice: artificial cerebrospinal solution (ACSF) for 30 minutes at 35° C. ACSF contained in mM (125 NaCl; 2.5 KCl; 1 MgCl2; 1.25 KH2PO4; 26 NaHCO3; 2 CaCl2); and 20 D-glucose (pH 7.35-7.40). Slices were then aerated in a holding chamber containing 100% ACSF for at least 30 min at room temperature before recording.
# Action Potential Recording and Analysis: Individual brain slices were placed in an RC-26 recording chamber (Warner Instruments) and superfused with aerated ACSF at a flowrate of 2-3 mL/min equipped with an inline heater (Warner Instruments) to maintain the recording temperature at 33-35° C. Layer 5 pyramidal neurons were identified based on their large soma size, shape, and location using an AIR upright confocal microscope (Nikon) equipped with IR-DIC optics and a 40× water immersion objective. Only vertically oriented pyramidal cells were selected for recording. […] The junction potential was calculated to be 14.3 mV using the P-clamp junction potential calculator and all values presented in the study are uncorrected. Following break in at −94.3 mV in voltage clamp mode, the resting membrane potential was defined as the membrane potential in current clamp <10 s after initial break in for baseline or immediately after XOB perfusion. Repetitive action potential firing was elicited in whole-cell current clamp from the resting membrane potential in 1 s long current injections in 10 pA steps from −20 pA to +400 pA. There was a 1 s long 0 pA current injection between each sweep. Data were acquired at 20 kHz and were filtered at 10 kHz. Cells with an access resistance measured in voltage clamp >20 MΩ or RMP more depolarized than −64.3 mV were not used. Access resistance and pipette capacitance were compensated using bridge balance. Whole cell capacitance was measured using P-clamp whole cell capacitance compensation in voltage clamp with 10 mV depolarizing steps from −94.3 mV. Automated action potential (AP) quantification and analysis was performed using custom MATLAB (MathWorks) software. APs were defined as the voltage crossing 0 mV after a dV/dt>10 mV/ms, defined here as the AP threshold. Input resistance was calculated using Ohm's law with a −10 pA current injection from the resting membrane potential after 250 ms.
# T1 sequence (P08908 whole entry): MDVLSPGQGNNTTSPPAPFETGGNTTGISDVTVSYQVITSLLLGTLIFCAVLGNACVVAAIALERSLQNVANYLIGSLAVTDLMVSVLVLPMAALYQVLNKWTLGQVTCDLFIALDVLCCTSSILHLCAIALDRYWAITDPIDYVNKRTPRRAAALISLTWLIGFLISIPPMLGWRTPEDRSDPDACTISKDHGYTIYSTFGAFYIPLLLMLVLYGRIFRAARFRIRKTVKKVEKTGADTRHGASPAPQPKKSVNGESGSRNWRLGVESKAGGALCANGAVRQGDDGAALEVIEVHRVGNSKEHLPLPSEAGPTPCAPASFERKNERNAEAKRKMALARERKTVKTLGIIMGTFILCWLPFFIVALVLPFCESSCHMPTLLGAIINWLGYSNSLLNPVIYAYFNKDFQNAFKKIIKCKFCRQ
compound,measurement,setting,value
"COc1cc(CCNCCCCCCOCCCCc2ccccc2)c(OC)cc1Br [XOB, N-(4-bromo-2,5-dimethoxyphenethyl)-6-(4-phenylbutoxy)hexan-1-amine]",binding affinity at 5-HT1A (in words),HiBiT-5-HT1A,no measurable affinity; also recorded: negligible binding affinity
same,Ki,"HiBiT-5-HT1A; equilibrium competitive displacement, Cheng-Prusoff, read-out: KI (binding affinity) at 5-HT1A",> 10 µM
same,First AP Max dv/dt,[1]; 10 μM,402.68±46.20 mV/ms and 402.68 mV/ms
same,First AP Min dv/dt,[1]; 10 μM,−91.32±8.95 mV/ms
same,First AP Peak Amplitude,[1]; 10 μM,41.21±2.92 mV and 41.21 ± 2.29 mV
same,First AP Threshold,[1]; 10 μM,−38.43±1.23 mV
same,Input Resistance,[1]; 10 μM,100.08±30.18 MΩ
same,Max Firing Rate @ 300 pA,[1]; 10 μM,12.25 ± 1.53 Hz
same,Max Firing Rate @ 400 pA,[1]; 10 μM,14±1.82 Hz
same,Resting Vm,[1]; 10 μM,−63.25±1.15 mV
same,Spike Width,[1]; 10 μM,0.76 ± 0.06 ms
same,depolarization of the resting membrane potential,[1]; 10 μM vs baseline,+8.45±1.15 mV
same,reduction in maximum firing frequency at 400 pA current injections,[1]; 10 μM vs baseline,~12 Hz
